Measured values: patent US7202287B2, “Method and compositions” (Arch Chemicals, Inc., priority 2000, dated 2007)

Assays:
[1] = test system: Pseudomonas aeruginosa NCIB 10421; assay: Minimum inhibitory concentration against mono-cultures, microtitre plate doubling dilutions in nutrient broth; format: cell-based; details: 24 hours at 37° C., visual inspection
Description: Pseudomonas aeruginosa NCIB 10421 Bacteria were grown to stationary phase (18 h) in nutrient broth (approximately 10^9 organisms per ml). A 0.1% (v/v) inoculum was used to seed fresh medium and 100 μl of the inoculum was then added to each well of a microtitre plate, except for the first well which contained 200 μl. Using doubling dilutions, the concentration of the compounds under investigation were varied in each well along the ordinate axis. The presence or absence of growth was recorded by visual inspection after 24 hours incubation at 37° C. […]

[2] = test system: Aspergillus Niger IMI 17454; assay: Minimum inhibitory concentration against monocultures (fungus); format: cell-based; details: Example 3, Table 5; biocide alone
Description: Aspergillus Niger IMI 17454 The fungus was maintained on malt agar. The MICs were calculated as described previously in examples 1 and 2.

Row | Compound | MIC (ppm) against Ps. aeruginosa ([1]; Example 2, Table 3, biocide alone) [ppm] | MIC (ppm) against Aspergillus Niger [2] [ppm] | MIC (ppm) against Ps. aeruginosa ([1]; Example 1, Table 1, biocide alone) [ppm]
1 | CCCCn1sc2ccccc2c1=O [Butyl BIT, 2n-butyl-1,2-benzisothiazolin-3-one] | 125 | 8 | –
2 | O=c1[nH]sc2ccccc12 [BIT, 1,2-benzisothiazolin-3-one] | – | – | 32
